Consider 1 compound from paper PMC8348161, “Cardiolipin-Containing Lipid Membranes Attract the Bacterial Cell Division Protein DivIVA” (International Journal of Molecular Sciences, 2021).

The target in the test is T1, DivIVACd (Clostridioides difficile, UniProt Q182V3).
T1 construct: gene CD630_26190; full length, untagged (pET-26b) or His-SUMO tag cut by Ulp1 without extra residues; E. coli BL21(DE3)pLysS; forms large polymers
T1 sequence (Q182V3 1-175): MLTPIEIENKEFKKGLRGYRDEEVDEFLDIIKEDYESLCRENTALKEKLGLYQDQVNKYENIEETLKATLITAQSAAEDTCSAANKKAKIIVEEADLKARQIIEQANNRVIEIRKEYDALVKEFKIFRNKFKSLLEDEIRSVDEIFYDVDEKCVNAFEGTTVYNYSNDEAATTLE
In words: QCM-D, protein titrated over supported lipid bilayer, Hill fit. The test is classed as binding. The conditions noted are these: 5% CL in mixed bilayer (65% DOPC, 30% DOPG, 5% TOCL); protein concentration scale; Hill coefficient 1.0; pH 7.4, 250 mM KCl, 5 mM MgCl2, 23 °C.

pKd: −log10 of the molar value.

In turn, `CCCCCCCC/C=C\CCCCCCCC(=O)OC[C@H](COP(=O)(O)OCC(O)COP(=O)(O)OC[C@@H](COC(=O)CCCCCCC/C=C\CCCCCCCC)OC(=O)CCCCCCC/C=C\CCCCCCCC)OC(=O)CCCCCCC/C=C\CCCCCCCC` (stereo partly shown) [TOCL, 1,3-bis[1,2-dioleoyl-sn-glycero-3-phospho]-glycerol] gave a pKd of 5.89.

For orientation: pKd means the Kd on a negative log10 scale, so that one unit is a factor of ten. High values mean a low Kd, low ones a high Kd.
